Key:
human fibroblasts = test: Direct induction from human fibroblasts into insulin-producing cells, amount of insulin secreted; type: cell-based; details: culturing for 14 days in differentiation induction medium; 3 μM CHIR99021, 7.5 μM forskolin, 1.5 μM BRD7389, 5 μM LY294002; BI-D1870 5 μM or 10 μM; FIGS. 1 to 4
Excerpt: The insulin-producing cell produced by the present invention process can be detected, identified, and isolated using, for example, a morphological change of a cell, a characteristic property of an insulin-producing cell, or a specific marker (e.g., an anti-insulin antibody). Moreover, the secretory capacity of the obtained insulin-producing cell can also be evaluated by quantifying the amount of secreted insulin using sandwich ELISA.
The human fibroblasts used as the material were purchased from DS Pharma Biomedical Co., Ltd. The fibroblasts are derived from human skin.
Human fibroblasts were seeded in 35-mm dishes coated with gelatin (Cat #: 190-15805, manufactured by Wako Pure Chemical Industries, Ltd.) at 5×10^4 cells/dish, and cultured in DMEM medium (manufactured by Gibco) supplemented with 10% fetal bovine serum (FBS), 100 U/mL penicillin, and 100 μg/mL streptomycin until confluent under conditions of 37° C. and 5% CO2. Note that DMEM refers to Dulbecco's Modified Eagle's Medium.
The medium of dishes of the human fibroblasts described above was replaced with the differentiation induction medium described below. […]

pancreatic α-cells = details: reported in Non-Patent Document 7; cited from earlier work

With `O=C1c2ccccc2-c2c(NCCc3ccccc3)c(=O)[nH]c3cccc1c23` [BRD7389] as the molecule, how does the “insulin secretion by insulin-producing cells directly differentiated from human fibroblasts” value (human fibroblasts) read?
The value was “a considerable amount of insulin secretion was observed”.

What about the “expression of insulin genes in pancreatic α-cells” value (pancreatic α-cells) of the same molecule?
Its value is “capacity of activating the expression of insulin genes”.

From patent US20210395689A1, “METHOD FOR PRODUCING INSULIN-PRODUCING CELLS” (KATAOKA CORPORATION, priority 2018, published 2021)
